# Experimental data from ChEMBL document CHEMBL4689842, “EUbOPEN Chemogenomics Library wave 1” (2021).
# Columns and labels:
# Assay type in all cases: toxicity, cell-based
# [1] = tested on: U2OS; assay: Incucyte cell viability with U2OS; details: human, 10 µM, compound concentration 10 uM
# [2] = tested on: HEK-293T; assay: Incucyte cell viability with HEK293T; details: human, 10 µM, compound concentration 10 uM
# [3] = tested on: Fibroblast; assay: Incucyte cell viability with human fibroblast; details: 10 µM, compound concentration 10 uM
# [4] = 0 h, replicate number 1, timepoint 0 hours
# [5] = 12 h, replicate number 1, timepoint 12 hours
# [6] = 18 h, replicate number 1, timepoint 18 hours
# [7] = 24 h, replicate number 1, timepoint 24 hours
# [8] = 6 h, replicate number 1, timepoint 6 hours
# [9] = 12 h, replicate number 2, timepoint 12 hours
# [10] = 18 h, replicate number 2, timepoint 18 hours
# [11] = 0 h, replicate number 2, timepoint 0 hours
# [12] = 6 h, replicate number 2, timepoint 6 hours
# [13] = 24 h, replicate number 2, timepoint 24 hours
# Note: filed as whole numbers so only -1 and 0 and 1 occur.
Compound,"Growth Rate [1, 4]","Growth Rate [1, 5]","Growth Rate [1, 6]","Growth Rate [1, 7]","Growth Rate [2, 4]","Growth Rate [2, 8]","Growth Rate [2, 5]","Growth Rate [2, 6]","Growth Rate [2, 7]","Growth Rate [3, 4]","Growth Rate [3, 11]","Growth Rate [3, 12]","Growth Rate [3, 5]","Growth Rate [3, 6]","Growth Rate [3, 7]","Growth Rate [3, 10]","Growth Rate [2, 11]","Growth Rate [1, 8]","Growth Rate [1, 10]","Growth Rate [3, 9]",other results
Cc1cc2c(cc1C1(c3ccc(C(=O)O)cn3)CC1)C(C)(C)CCC2(C)C,0,1,1,1,0,1,1,1,0,1,0,1,0,1,0,,,,,,"Growth Rate [2, 9]: 0; Growth Rate [2, 10]: 0; Growth Rate [3, 8]: 0; Growth Rate [3, 13]: 1"
C/C(=C/C=C/C(C)=C/C(=O)O)c1cc(C(C)(C)C)cc(C(C)(C)C)c1OCC(F)F,0,1,1,1,0,0,0,0,0,0,,,0,0,0,1,,,,,"Growth Rate [3, 8]: 0"
CN(C)CCCN1c2ccccc2CCc2ccccc21.Cl [IMIPRAMINE HYDROCHLORIDE],,1,1,1,,0,0,0,0,0,,,0,1,0,0,1,,,,"Growth Rate [1, 11]: 0; Growth Rate [3, 8]: 0"
CCCCN(Cc1ccccc1)C(=O)c1ccc(S(=O)(=O)Nc2ccccc2)cc1,,1,1,1,0,1,,,,0,1,0,1,1,0,0,,1,0,0,"Growth Rate [1, 13]: 0; Growth Rate [2, 12]: 0; Growth Rate [2, 9]: 1; Growth Rate [2, 13]: 1; Growth Rate [3, 13]: 1"
COc1cccc(-c2c(C)n(Cc3c(F)cccc3C(F)(F)F)c(=O)n(C[C@H](NCCCC(=O)[O-])c3ccccc3)c2=O)c1F.[Na+] [ELAGOLIX SODIUM],,0,0,0,0,1,1,1,1,0,1,0,,,,0,,0,1,0,"Growth Rate [1, 11]: 1; Growth Rate [2, 9]: 0; Growth Rate [3, 13]: 0"
CN1CCN(c2ccc(-c3cccc(CN4CCOCC4)c3)cc2NC(=O)c2c[nH]c(=O)cc2C(F)(F)F)CC1,0,0,0,1,,0,0,1,1,,1,0,1,1,1,,1,1,1,0,"Growth Rate [1, 12]: 0; Growth Rate [1, 13]: 0"
COc1cccc(CNC(=O)c2nc3scc(COCc4ccc(C(=O)O)cc4)c3c(=O)[nH]2)c1 [T-26c],0,1,1,1,0,,,1,1,,0,0,1,1,1,0,1,1,,0,"Growth Rate [1, 12]: 0; Growth Rate [1, 9]: 0"
CCOC(=O)c1ccc(C#Cc2ccc3c(c2)C(C)(C)CCS3)nc1 [TAZAROTENE],,0,0,0,,0,0,0,0,0,,,1,1,0,,0,,1,,"Growth Rate [1, 11]: 0; Growth Rate [1, 12]: 1; Growth Rate [1, 9]: 1; Growth Rate [1, 13]: 1; Growth Rate [2, 12]: 1"
